Test systems include NCI-H522 lung; 786-0 renal; MDA-MB-435; HL-60(TB) leukemia; OVCAR-3 ovarian; PC-3 prostate; TK-10 renal; SF-295 CNS; MALME-3M melanoma; MDA-MB-231 breast.
Experiment in all cases: inhibition of tumour cell growth, NCI panel, 48 h

The structures appear in SMILES notation.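 Cells were grown in 96-well plates and exposed to each compound for 48 hours at five concentrations; endpoints were interpolated linearly between bracketing concentrations, or set to the highest concentration if not reached. Here, GI50 denotes the concentration required for 50% inhibition of growth. TGI is the concentration that stops growth completely.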

Consider `C[C@@H](O)[C@H](NC(=O)N[C@@H](CC(N)=O)c1nc([C@@H](N)CO)no1)C(=O)O`, for which the GI50 in the test on NCI-H522 lung, in the test with 786-0 renal, in the test with MDA-MB-435, in the test on HL-60(TB) leukemia, in the test with OVCAR-3 ovarian and in the test on PC-3 prostate was more than 100 µM in each case. Moreover, the GI50 in the test with TK-10 renal, in the test with SF-295 CNS, with MALME-3M melanoma and in the test on MDA-MB-231 breast was more than 100 µM throughout. In addition, the TGI in the test on NCI-H522 lung, in the test on 786-0 renal, in the test with MDA-MB-435, in the test on HL-60(TB) leukemia, with OVCAR-3 ovarian and in the test on PC-3 prostate was more than 100 µM throughout. For the same compound, the TGI in the test with TK-10 renal, in the test on SF-295 CNS, with MALME-3M melanoma and in the test with MDA-MB-231 breast was more than 100 µM in each case.

`COc1ccc(/C(COc2ccc3c(=O)c(-c4ccccc4)coc3c2)=N\O)cc1`: the GI50 in the test on NCI-H522 lung was 4.65 µM; in the test on 786-0 renal, 16.9 µM; in the test on MDA-MB-435, 2.17 µM; in the test with HL-60(TB) leukemia, 0.119 µM; with OVCAR-3 ovarian, 0.987 µM; in the test with PC-3 prostate, 6.53 µM. In addition, the GI50 is 0.988 µM in the test on TK-10 renal, 2.59 µM with SF-295 CNS, 0.72 µM with MALME-3M melanoma and 0.698 µM in the test with MDA-MB-231 breast. For the same compound, the TGI is 20.6 µM in the test with NCI-H522 lung; 38.5 µM in the test on 786-0 renal; 4.64 µM with MDA-MB-435; 2.2 µM in the test on HL-60(TB) leukemia; 10.8 µM in the test with OVCAR-3 ovarian; 58.7 µM with PC-3 prostate. In addition, the TGI in the test with TK-10 renal amounted to 9.22 µM; with SF-295 CNS, 25.5 µM; in the test on MALME-3M melanoma, 5.91 µM; with MDA-MB-231 breast, 18.5 µM.

For the compound `O=C1CC(=O)N(C(=O)c2nn(-c3ccc(Cl)cc3)cc2O)N1`, the GI50 was 0.299 µM in the test on NCI-H522 lung; 3.76 µM in the test with 786-0 renal; 0.355 µM in the test on MDA-MB-435; 0.751 µM in the test with HL-60(TB) leukemia; 1.31 µM in the test with OVCAR-3 ovarian; 0.36 µM with PC-3 prostate. The GI50 in the test with TK-10 renal was 0.35 µM; in the test on SF-295 CNS it was 0.17 µM; with MALME-3M melanoma, 0.703 µM; in the test with MDA-MB-231 breast it was 1.84 µM. For the same compound, the TGI was 3.17 µM with NCI-H522 lung; more than 64.5 µM with 786-0 renal; more than 100 µM with MDA-MB-435; 4.08 µM in the test with HL-60(TB) leukemia; 6.16 µM with OVCAR-3 ovarian; more than 100 µM in the test on PC-3 prostate. The TGI is more than 65.2 µM in the test on TK-10 renal, more than 100 µM in the test with SF-295 CNS, 46.5 µM in the test with MALME-3M melanoma and more than 100 µM with MDA-MB-231 breast.

For the compound `C[C@]12CC[C@@H]3c4cc(-c5ccc(F)cc5)c(O)cc4CC[C@H]3[C@@H]1CC[C@@H]2O`, the GI50 with NCI-H522 lung was 3.79 µM; with 786-0 renal, 11.9 µM; with MDA-MB-435, 11.8 µM; with HL-60(TB) leukemia it was 8.17 µM; in the test with OVCAR-3 ovarian it was 4.02 µM; with PC-3 prostate, 4.63 µM. Moreover, the results for the GI50 in the test with SF-295 CNS, in the test with MALME-3M melanoma and in the test with MDA-MB-231 breast were 3.98 µM, 10.1 µM and 7.86 µM, respectively. For the same compound, the TGI with NCI-H522 lung amounted to 16.7 µM; with 786-0 renal, 27.7 µM; with MDA-MB-435, 28.6 µM; in the test with HL-60(TB) leukemia, 28.5 µM; in the test with OVCAR-3 ovarian, 20.9 µM; in the test with PC-3 prostate it was 21.8 µM. Further, the TGI in the test with TK-10 renal was determined as 21.7 µM; in the test with SF-295 CNS it was 17.6 µM; in the test with MALME-3M melanoma, 22 µM; with MDA-MB-231 breast it was 23.9 µM.

For `O=C(O)c1ccc(Oc2nccc(-c3c(-c4ccc(F)cc4)ncn3C3CCNCC3)n2)cc1`, the GI50 in the test with NCI-H522 lung, with 786-0 renal, in the test on MDA-MB-435, in the test with HL-60(TB) leukemia, in the test with OVCAR-3 ovarian and in the test on PC-3 prostate was more than 25 µM each time. The GI50 in the test on TK-10 renal, in the test with SF-295 CNS, with MALME-3M melanoma and in the test on MDA-MB-231 breast was more than 25 µM throughout. Further, the TGI in the test with NCI-H522 lung, in the test on 786-0 renal, in the test with MDA-MB-435, with HL-60(TB) leukemia, in the test on OVCAR-3 ovarian and in the test on PC-3 prostate was more than 25 µM each time. The TGI in the test on TK-10 renal, with SF-295 CNS, in the test on MALME-3M melanoma and in the test with MDA-MB-231 breast was more than 25 µM each time.

Regarding `O=c1cc(N2CCN(CCCCCOc3cc(O)c4c(=O)cc(-c5ccccc5)oc4c3)CC2)c2ccccc2o1`, the GI50 with NCI-H522 lung was more than 100 µM; with 786-0 renal, 6.92 µM; with MDA-MB-435, 47.2 µM; with HL-60(TB) leukemia, 17.5 µM; with OVCAR-3 ovarian it was more than 100 µM; in the test on PC-3 prostate, 43.1 µM. Moreover, the GI50 was more than 100 µM with TK-10 renal, more than 100 µM with SF-295 CNS, 39.2 µM in the test with MALME-3M melanoma and 13.1 µM in the test with MDA-MB-231 breast. Besides, the TGI with NCI-H522 lung, in the test on 786-0 renal, with MDA-MB-435, in the test with HL-60(TB) leukemia, in the test on OVCAR-3 ovarian and in the test on PC-3 prostate was more than 100 µM throughout. The TGI in the test on TK-10 renal, in the test on SF-295 CNS, with MALME-3M melanoma and with MDA-MB-231 breast was more than 100 µM in each case.

Take `N#Cc1ccc2c(c1)C(=O)c1c-2n(CCCCl)c(=O)c2cc([N+](=O)[O-])ccc12`: the GI50 with NCI-H522 lung was 3.07 µM; in the test with 786-0 renal, 2.46 µM; with MDA-MB-435 it was more than 100 µM; in the test with HL-60(TB) leukemia, 11.4 µM; with OVCAR-3 ovarian it was 8.77 µM; in the test with PC-3 prostate it was 19.1 µM. In addition, the GI50 in the test on TK-10 renal is 42.9 µM; in the test on SF-295 CNS it was 4.21 µM; in the test with MALME-3M melanoma, 24 µM; in the test with MDA-MB-231 breast, 77.5 µM. Besides, the TGI with NCI-H522 lung was 24.3 µM; in the test with 786-0 renal it was 7.88 µM; in the test on MDA-MB-435, more than 100 µM; in the test on HL-60(TB) leukemia, 29.9 µM; with OVCAR-3 ovarian, more than 100 µM; in the test on PC-3 prostate, more than 100 µM. The TGI in the test with TK-10 renal, with SF-295 CNS, in the test with MALME-3M melanoma and in the test with MDA-MB-231 breast was more than 100 µM throughout.

The record behind these values is PubChem BioAssay (NCI).
